Assay results: patent US10029994B2, “Isoxazole hydroxamic acid compounds as LpxC inhibitors” (priority 2014, dated 2018)

Experiments:
P. aeruginosa LpxC = biological target: T1, P. aeruginosa LpxC (Pseudomonas aeruginosa, UniProt P47205); experiment: P. aeruginosa LpxC Inhibition Assay (LC-MS/MS); assay type: biochemical; settings: 1 nM P. aeruginosa LpxC, 30 min pre-incubation, 2 μM UDP-3-O-(R-3-hydroxydecanoyl)-GlcNAc, pH 7.5
T1 construct: made in house
T1 sequence (P47205 1-303): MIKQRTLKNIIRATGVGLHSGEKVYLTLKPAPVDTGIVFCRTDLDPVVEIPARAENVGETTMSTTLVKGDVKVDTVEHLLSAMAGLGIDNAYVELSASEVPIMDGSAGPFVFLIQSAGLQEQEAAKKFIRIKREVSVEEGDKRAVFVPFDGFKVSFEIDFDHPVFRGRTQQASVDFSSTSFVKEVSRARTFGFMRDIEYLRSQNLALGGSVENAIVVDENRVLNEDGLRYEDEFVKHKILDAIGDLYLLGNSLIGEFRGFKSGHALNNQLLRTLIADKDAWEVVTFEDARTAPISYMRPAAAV
Text: P. aeruginosa LpxC Inhibition Assay
The P. aeruginosa LpxC protein is produced according to the general method of Hyland et al (Journal of Bacteriology 1997 179, 2029-2037: Cloning, expression and purification of UDP-3-O-acyl-GlcNAc deacetylase from Pseudomonas aeruginosa: a metalloamidase of the lipid A biosynthesis pathway). The LC-MS/MS method for quantitation of LpxC product was developed using an Agilent 1200 Capillary HPLC system coupled to an Applied Biosystems MDS Sciex 4000QTRAP mass spectrometer. Both instruments are controlled using the Applied Biosystems MDS Sciex Analyst software. LpxC reaction product (UDP-3-O—(R-3-hydroxyacyl)-glucosamine) was produced by hydrolysis of LpxC substrate catalyzed by P.a. LpxC and purified using reversed phase chromatography on a Phenomenex Luna C18(2) 4.6×50 mm column. An LpxC product calibration curve was generated to evaluate the sensitivity and dynamic range of the LC-MS/MS method. Briefly, compounds are pre-incubated with 1 nM P. aeruginosa LpxC for 30 min. at room temperature. Reactions are initiated by the addition of 2 μM UDP-3-O—(R-3-hydroxydecanoyl)-GlcNAc. Reactions are conducted in a 384-well plate with a total volume of 50 μL in each well containing 50 mM Sodium phosphate pH 7.5, 0.005% Trition X-100 for 20 min at room temperature. After quenching with 1.8% HOAc (5 μL of a 20% HOAc added to each well), reaction mixtures are analyzed using the LC-MS/MS method and peak areas are transformed into product concentration using a LpxC product calibration curve. Total activity (0% inhibition control) is obtained from reactions with no inhibitors and 100% inhibition control is the background using quenched samples before reaction starts. For IC50 determinations, peak areas are converted to percent inhibition in Microsoft Excel. Percent inhibition values are plotted vs. log compound concentration using XLfit. Data is fit to the four-parameter logistic equation using the non-linear regression algorithm in XLfit to return the IC50 and hill slope values.

P. A. PAO1 NB52019 = experiment: MIC, broth microdilution (CLSI); assay type: cell-based, Pseudomonas aeruginosa; settings: Pseudomonas aeruginosa, PAO1; broth microdilution, 35° C., 20 hours; read-out: P. A. PAO1 NB52019 MIC
Experimental: (§1) Bacterial isolates were cultivated from −70° C. frozen stocks by two consecutive overnight passages at 35° C. in ambient air on 5% blood agar (Remel, Lenexa, Kans.). Quality control strain, P. aeruginosa ATCC 27853, A. baumannii ATCC19606 and E. coli ATCC 25922 are from the American Type Culture Collection (ATCC; Rockville, Md.) and PAO1 was received from Dr. K. Poole.
(§2) Minimal Inhibitory Concentrations (MICs) were determined by the broth microdilution method in accordance with Clinical and Laboratories Institute (CLSI) guidelines (CLSI M100-S25, Performance Standards for Antimicrobial Susceptibility Testing; Twenty-fifth Informational Supplement). In brief, fresh bacterial overnight cultures were resuspended in sterile saline, adjusted to a 0.5 McFarland turbidity standard and then diluted 2000-fold in cation adjusted Mueller-Hinton Broth II (MHB; Remel BBL) to yield a final inoculum of approximately 5×10^5 colony-forming units (CFU)/mL. Two-fold serial dilutions of compounds were prepared in 100% dimethyl sulfoxide (DMSO) at 100-fold the highest final assay concentration; the resulting dilution series of compounds were diluted 1:10 with sterile water. Ten μl of the drug dilution series in 10% DMSO was transferred to microtiter wells and 90 μl of bacterial suspension was inoculated into the wells. For testing the ability of compounds to potentiate the activity of known antibiotics, the assay was modified as follows; known antibiotics were added to the bacterial inoculum at 1.1-fold the final assay concentration indicated in Table A. All inoculated microdilution trays were incubated in ambient air at 35° C. for 20 hours. Following incubation, assay plates were read in a microtiter plate reader at 600 nm and visually inspected to confirm the MIC endpoint well with the OD value. The lowest concentration of the compound that prevented visible growth was recorded as the MIC. Performance of the assay was monitored by testing ciprofloxacin against the laboratory quality control strain in accordance with guidelines of the CLSI.

E. C. ATCC 25922 = experiment: MIC, broth microdilution (CLSI); assay type: cell-based, Escherichia coli; settings: Escherichia coli, ATCC25922, 20 h, broth microdilution, 35° C., 20 hours; read-out: E. C. ATCC 25922 MIC
Experimental: as §1, §2

E. C. ATCC 29522 = experiment: MIC in the presence of sub-inhibitory rifampicin (potentiation/synergy); assay type: cell-based, Escherichia coli; settings: +2 μg/ml rifampicin (RIF); broth microdilution, 35° C., 20 hours
Experimental: as §1, §2

A. B. ATCC 19606 [1] = experiment: MIC, broth microdilution (CLSI); assay type: cell-based, Acinetobacter baumannii; settings: Acinetobacter baumannii, ATCC19606; broth microdilution, 35° C., 20 hours; read-out: A. B. ATCC 19606 MIC
Experimental: as §1, §2

A. B. ATCC 19606 [2] = experiment: MIC in the presence of sub-inhibitory rifampicin (potentiation/synergy); assay type: cell-based, Acinetobacter baumannii; settings: +2 μg/ml rifampicin (RIF); broth microdilution, 35° C., 20 hours
Experimental: as §1, §2

IC50 (P. aeruginosa LpxC) [nM]	MIC (P. A. PAO1 NB52019) [mg/L]	MIC (E. C. ATCC 25922) [mg/L]	E. C. ATCC 29522 (+2 μg/ml RIF) MIC (E. C. ATCC 29522) [mg/L]	MIC (A. B. ATCC 19606 [1]) [mg/L]	A. B. ATCC 19606 (+2 μg/ml RIF) MIC (A. B. ATCC 19606 [2]) [mg/L]	SMILES
< 1	0.5	8	0.25	> 64	0.25	C[C@@](CCc1cc(C#CCCCF)on1)(C(=O)NO)S(C)(=O)=O [Compound 1.10, (R)-4-(5-(5-fluoropent-1-yn-1-yl)isoxazol-3-yl)-N-hydroxy-2-methyl-2-(methylsulfonyl)butanamide]
1	1	32	0.5	> 64	1	C[C@@](CCc1cc(C#CCCC(F)F)on1)(C(=O)NO)S(C)(=O)=O [Compound 1.11, (R)-4-(5-(5,5-Difluoropent-1-yn-1-yl)isoxazol-3-yl)-N-hydroxy-2-methyl-2-(methylsulfonyl)butanamide]
< 1	0.5	16	0.25	> 64	≤0.06	C[C@@](CCc1cc(C#CC2CC(F)(F)C2)on1)(C(=O)NO)S(C)(=O)=O [Compound 1.12, (R)-4-(5-((3,3-difluorocyclobutyl)ethynyl)isoxazol-3-yl)-N-hydroxy-2-methyl-2-(methylsulfonyl)butanamide]
2	8	> 64	16	> 64	≤0.06	CC(C)(O)CCC#Cc1cc(CC[C@](C)(C(=O)NO)S(C)(=O)=O)no1 [Compound 1.14, (R)—N-hydroxy-4-(5-(5-hydroxy-5-methylhex-1-yn-1-yl)isoxazol-3-yl)-2-methyl-2-(methylsulfonyl)butanamide]
< 1	2	16	4	> 64	4	CC(C)(O)C1CC(C#Cc2cc(CC[C@](C)(C(=O)NO)S(C)(=O)=O)no2)C1 (stereo partly drawn) [Compound 1.16, (R)—N-hydroxy-4-(5-((3-(2-hydroxypropan-2-yl)cyclobutyl)ethynyl)isoxazol-3-yl)-2-methyl-2-(methylsulfonyl)butanamide]
< 1	0.5	2	≤0.06	> 64	2	CC(CCc1cc(C#Cc2ccc(CO)cc2)on1)(C(=O)NO)S(C)(=O)=O (stereo not drawn) [Compound 2.1, N-hydroxy-4-(5-((4-(hydroxymethyl)phenyl)ethynyl)isoxazol-3-yl)-2-methyl-2-(methylsulfonyl)butanamide]
< 1	0.25	0.25	≤0.06	> 64	0.5	CC(CCc1cc(C#Cc2ccc(CCO)cc2)on1)(C(=O)NO)S(C)(=O)=O (stereo not drawn) [Compound 2.2, N-hydroxy-4-(5-((4-(2-hydroxyethyl)phenyl)ethynyl)isoxazol-3-yl)-2-methyl-2-(methylsulfonyl)butanamide]
< 1	0.5	1	0.125	> 64	4	COC(CO)c1ccc(C#Cc2cc(CCC(C)(C(=O)NO)S(C)(=O)=O)no2)cc1 (stereo not drawn) [Compound 2.3, N-hydroxy-4-(5-((4-(2-hydroxy-1-methoxyethyl)phenyl)ethynyl)isoxazol-3-yl)-2-methyl-2-(methylsulfonyl)butanamide]
< 1	0.5	0.5	≤0.06	64	≤0.06	CC(CCc1cc(C#Cc2ccccc2)on1)(C(=O)NO)S(C)(=O)=O (stereo not drawn) [Compound 2.4, N-hydroxy-2-methyl-2-(methylsulfonyl)-4-(5-(phenylethynyl)isoxazol-3-yl)butanamide]
< 1	1	0.25	0.125	> 64	0.5	C[C@@H](O)Cc1ccc(C#Cc2cc(CCC(C)(C(=O)NO)S(C)(=O)=O)no2)cc1 (stereo partly drawn) [Compound 2.5, N-hydroxy-4-(5-((4-((R)-2-hydroxypropyl)phenyl)ethynyl)isoxazol-3-yl)-2-methyl-2-(methylsulfonyl)butanamide]
< 1	0.25	0.5	0.125	> 64	1	CO[C@H](CO)c1ccc(C#Cc2cc(CC[C@](C)(C(=O)NO)S(C)(=O)=O)no2)cc1 [Compound 2.6, (R)—N-hydroxy-4-(5-((4-((S)-2-hydroxy-1-methoxyethyl)phenyl)ethynyl)-isoxazol-3-yl)-2-methyl-2-(methylsulfonyl)butanamide]
< 1	0.25	1	0.125	> 64	6	C[C@@](CCc1cc(C#Cc2ccc([C@H](O)CO)cc2)on1)(C(=O)NO)S(C)(=O)=O [Compound 2.7, (R)-4-(5-((4-((S)-1,2-dihydroxyethyl)phenyl)ethynyl)isoxazol-3-yl)-N-hydroxy-2-methyl-2-(methylsulfonyl)butanamide]
< 1	0.25	1	0.125	> 64	1	C[C@@](CCc1cc(C#Cc2ccc([C@@H](O)CO)cc2)on1)(C(=O)NO)S(C)(=O)=O [Compound 2.8, (R)-4-(5-((4-((R)-1,2-dihydroxyethyl)phenyl)ethynyl)isoxazol-3-yl)-N-hydroxy-2-methyl-2-(methylsulfonyl)butanamide]
